For this test, the target named is T1, human MPO (Homo sapiens, UniProt P05164).
T1 sequence (P05164 49-745): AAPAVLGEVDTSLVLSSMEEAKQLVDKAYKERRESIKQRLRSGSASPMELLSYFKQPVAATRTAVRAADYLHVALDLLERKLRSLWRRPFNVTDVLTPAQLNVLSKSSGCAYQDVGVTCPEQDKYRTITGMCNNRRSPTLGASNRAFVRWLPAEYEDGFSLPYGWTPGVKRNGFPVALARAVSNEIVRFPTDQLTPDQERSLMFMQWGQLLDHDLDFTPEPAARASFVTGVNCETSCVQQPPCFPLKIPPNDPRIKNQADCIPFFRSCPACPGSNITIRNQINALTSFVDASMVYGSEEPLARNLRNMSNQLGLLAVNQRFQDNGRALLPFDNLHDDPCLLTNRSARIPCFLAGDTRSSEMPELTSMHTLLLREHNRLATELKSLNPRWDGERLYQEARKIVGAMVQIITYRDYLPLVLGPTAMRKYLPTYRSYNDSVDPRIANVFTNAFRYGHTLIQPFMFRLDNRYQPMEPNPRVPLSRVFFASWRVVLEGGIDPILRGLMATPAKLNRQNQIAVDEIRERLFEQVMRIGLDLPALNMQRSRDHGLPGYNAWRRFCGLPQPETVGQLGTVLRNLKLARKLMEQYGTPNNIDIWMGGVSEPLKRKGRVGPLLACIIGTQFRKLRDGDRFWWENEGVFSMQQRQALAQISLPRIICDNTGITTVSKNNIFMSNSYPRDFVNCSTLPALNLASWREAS
Put plainly: MPO inhibition screen (TMB oxidation, absorbance), with or without added tyrosine. Type of test: biochemical. Particulars: in the presence of tyrosine (final 8 uM); human MPO 2.5 nM; H2O2 100 μM; pH 6.5. As to the method:
Methods for the determination of MPO inhibitory activity are disclosed in co-pending patent application WO 02/090575. The pharmacological activity of compounds according to the invention was tested in the following screen in which the compounds were either tested alone or in the presence of added tyrosine:
Assay buffer: 20 mM sodium/potassium phosphate buffer pH 6.5 containing 10 mM taurine and 100 mM NaCl.
Developing reagent: 2 mM 3,3 ′,5,5′-tetramethylbenzidine (TMB), 200 μM KI, 200 mM acetate buffer pH 5.4 with 20% DNF.
To 10 μl of diluted compounds in assay buffer, 40 μl of human MPO (final concentration 2.5 nM), with or without 20 μM tyrosine (final concentration, if present, 8 uM), was added and the mixture was incubated for 10 minutes at ambient temperature. Then 50 μl of H2O2 (final concentration 100 μM), or assay buffer alone as a control, were added. After incubation for 10 minutes at ambient temperature, the reaction was stopped by adding 10 μl 0.2 mg/ml of catalase (final concentration 18 μg/ml). The reaction mixture was left for an additional 5 minutes before 100 μl of TMB developing reagent was added. The amount of oxidised 3,3′,5,5′-tetramethylbenzidine formed was then measured after about 5 minutes using absorbance spectroscopy at about […]. IC50 values were then determined using standard procedures.
As usually defined, the IC50 is the point on the concentration scale where inhibition reaches its midpoint. On to `Fc1ccc(-n2c(Cc3ccccc3Cl)n[nH]c2=S)cc1` [Example 29, 5-(2-Chlorobenzyl)-4-(4-fluorophenyl)-2,4-dihydro-[1,2,4]triazole-3-thione], for which the IC50 amounted to 3.9 µM. For the compound `OCC(c1ccccc1)c1n[nH]c(=S)n1-c1ccccc1` (stereo not shown) [Example 57, 5-(2-Hydroxy-1-phenylethyl)-4-phenyl-2,4-dihydro-[1,2,4]triazole-3-thione], the IC50 amounted to 23.6 µM. Turning to `COc1ccc(OCc2n[nH]c(=S)n2CC2CCCO2)cc1` (stereo not shown) [Example 20, 5-(4-Methoxyphenoxymethyl)-4-(2-tetrahydrofuran-2-yl-methyl)-2,4-dihydro-[1,2,4]triazole-3-thione], the IC50 is 11.3 µM. The same measure for `Cc1ccccc1-n1c(Cc2c[nH]c3ccccc23)n[nH]c1=S` [Example 74, 5-(1H-Indol-3-ylmethyl)-4-(2-methylphenyl)-2,4-dihydro-[1,2,4]triazole-3-thione]: 7.2 µM.

The values are drawn from patent US20070093483A1, “Use of derivatives of 2, 4-dihydro-[1,2,4] triazole-3-thione as inhibitors of the enzyme myeloperoxidase (mpo)” (ASTRAZENECA AB, priority 2003, published 2007).
